US20260335468A1, “MOLECULAR RADIOAFTERGLOW PROBES FOR CANCER RADIODYNAMIC THERANOSTICS” (NANYANG TECHNOLOGICAL UNIVERSITY, priority 2023, published 2026)

What was measured:
[1] = ^1O2 generation upon X-ray irradiation (ESR, TEMP trap); format: physicochemical; settings: for ^1O2 generation / radiodynamic activity: X-ray irradiation, ESR
Procedure: To study ^1O2 generation, a mixture of DPAS or IDPAS (100 M) and TEMP (10 mM) in PBS (0.01 M, pH 7.4, 50% DMSO) was irradiated by X-rays at 2 Gy (100 mGy s^−1 for 20 s) or 5 mGy (250 μGy s^−1 for 20 s). The ESR signals of the mixture were recorded with a Bruker A300 instrument. The ESR signal of the free radical 2,2,6,6-tetramethyl-1-piperidinyloxyl (g=2.0060) was generated by the reaction of ^1O2 with TEMP. The ^1O2 quencher NaN3 (1 mM) was added to validate the afterglow mechanism of IDPASu. Additionally, other commercially available radio sensitizers (such as acridine orange, hematoporphyrin and verteporfin) were measured and compared. The procedure of block depths was similar to that of the tissue penetration depth study and the ^1O2 generation for different depth tissues was measured. The ESR signal changes of MRAP in the absence or presence of CatB were measured in a similar way. The ESR signals of 2,2,6,6-tetramethyl-1-piperidinyloxyl from the reaction of ^1O2 with TEMP were plotted as a function of the concentration of ^1O2, which was generated by the addition of NaOCl to H2O2. This generated the standard curve between the ESR intensity and ^1O2 concentration.

[2] = Radio afterglow spectra, intensity and half-life of luminophores in PBS after X-ray; format: physicochemical; settings: for radio afterglow brightness / intensity: X-ray irradiation; for radio afterglow intensity increase versus iodine-free counterpart: 100 μM, PBS pH 7.4, 50% DMSO, X-ray 5 mGy
Procedure: The optical properties of DPAs and IDPAs were investigated in an aqueous solution (FIGS. 2 and 3). […] Their half-lives ranged from 9.2 to 196.8 min (FIG. 4e).
DPAs or IDPAs (100 μM) in 0.01 M PBS (pH 7.4, 50% DMSO) were irradiated by X-rays at 250 μGy s^−1 for 20 s (total, 5 mGy) under the specific setup parameter of 10 kV and 75 μA. Then, the radio afterglow signal was collected with an IVIS imaging system under the bioluminescence mode with an open filter and an acquisition time of 60 s. Finally, the radio afterglow intensities were quantified by a region-of-interest analysis using Living Image 4.3 software. In addition, the radio afterglow spectra of the candidates were acquired under the same test conditions with specific emission filters, and time courses of the signal were recorded as a function of time.

## COC(=C1C2CC3CC(C2)CC1C3)c1c(/C=C/C2=CC(=C(C#N)C#N)c3ccccc3O2)cc(I)c(O)c1I [DIDPAO]
[1]
  ^1O2 generation / radiodynamic activity: slightly increase
[2]
  radio afterglow brightness / intensity: extremely low

## COC(=C1C2CC3CC(C2)CC1C3)c1c(/C=C/C2=CC(=C(C#N)C#N)c3ccccc3S2)cc(I)c(O)c1I [DIDPAS]
[1]; X-ray 5 mGy
  ^1O2 generation versus that of IDPAs: ~ 1.2 fold
[1]
  ^1O2 generation / radiodynamic activity: slightly increase
[2]
  radio afterglow brightness / intensity: extremely low

## COC(=C1C2CC3CC(C2)CC1C3)c1cc(O)ccc1/C=C/C1=CC(=C(C#N)C#N)c2ccccc2S1 [DPASu, DBTP-phenoxy-adamantylidene]
[1]
  ^1O2 generation / radiodynamic activity: generation of ^1O2

## COC(=C1C2CC3CC(C2)CC1C3)c1cc(O)c(I)cc1/C=C/C1=CC(=C(C#N)C#N)c2ccccc2O1 [IDPAO]
[2]
  radio afterglow intensity increase versus iodine-free counterpart: ~ 1.62 fold

## COC(=C1C2CC3CC(C2)CC1C3)c1cc(O)c(I)cc1/C=C/C1=CC(=C(C#N)C#N)c2ccccc2[Se]1 [IDPASe]
[2]
  radio afterglow intensity increase versus iodine-free counterpart: 6.65 fold
